Data from BindingDB's records for PubMed 9067310 (Institut De Recherches Servier, 1997).

Experiments:
[1] = target: T1, 5-hydroxytryptamine receptor 1A (Homo sapiens, UniProt P08908)
T1 sequence (P08908 whole entry): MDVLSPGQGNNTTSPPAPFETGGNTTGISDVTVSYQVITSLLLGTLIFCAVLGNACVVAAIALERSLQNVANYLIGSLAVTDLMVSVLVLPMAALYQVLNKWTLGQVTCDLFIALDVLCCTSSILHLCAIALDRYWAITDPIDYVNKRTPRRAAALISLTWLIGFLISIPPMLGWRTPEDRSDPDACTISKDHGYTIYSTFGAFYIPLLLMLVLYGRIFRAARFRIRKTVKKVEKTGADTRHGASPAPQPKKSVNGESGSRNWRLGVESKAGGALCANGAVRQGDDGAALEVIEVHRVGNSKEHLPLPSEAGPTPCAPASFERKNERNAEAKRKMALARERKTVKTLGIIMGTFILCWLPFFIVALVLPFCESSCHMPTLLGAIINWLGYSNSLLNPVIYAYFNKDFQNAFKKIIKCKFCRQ

D(2) dopamine receptor = D(2) dopamine receptor (Homo sapiens, UniProt P14416)
Chain of D(2) dopamine receptor (P14416 whole entry): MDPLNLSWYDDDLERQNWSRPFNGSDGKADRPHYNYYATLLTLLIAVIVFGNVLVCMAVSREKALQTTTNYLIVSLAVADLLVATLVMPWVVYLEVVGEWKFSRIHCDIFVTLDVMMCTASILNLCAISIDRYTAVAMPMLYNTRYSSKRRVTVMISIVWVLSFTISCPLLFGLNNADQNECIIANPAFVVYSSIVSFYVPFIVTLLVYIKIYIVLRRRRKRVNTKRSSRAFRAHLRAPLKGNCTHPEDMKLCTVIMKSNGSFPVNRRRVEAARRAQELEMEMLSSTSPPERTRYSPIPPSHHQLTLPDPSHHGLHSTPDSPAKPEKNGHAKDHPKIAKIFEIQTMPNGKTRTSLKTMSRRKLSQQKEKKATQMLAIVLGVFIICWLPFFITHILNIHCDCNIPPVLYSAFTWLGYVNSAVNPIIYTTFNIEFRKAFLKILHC

SMILES	Ki [1]	Ki (D(2) dopamine receptor)
CCCN(CCC)C1CCc2ccc(O)cc2C1 (stereo not drawn)	265 nM	–
CC(C)(C)NCC(O)COc1cccc2c1SCCC2 (single isomer, unassigned; (-)) [TERTATOLOL(-)]	6.7 nM	> 10000 nM
